Values after ≈ are worked out from the molar mass of the structure shown. Bridge positions count the residues as written; N and C are the ends. Square brackets hold non-standard residues; d marks the D form. Ends that are not written are not given here. Peptide text beside a SMILES is read from it. Dab = NCC[C@H](N)C(=O)O
What was measured:
B. cinerea = assay: Drop inoculation assay on detached Nicotiana benthamiana leaves (semi-in planta); assay type: in vivo, Botrytis cinerea; details: 48 h

Row | Compound | MIC (μM) (SFM + 2 mM CaCl2) (Botrytis cinerea) | MIC (μM) (SFM + 100 mM KCl) (Botrytis cinerea) | MIC (μM) (SFM + 100 mM NaCl) (Botrytis cinerea) | MIC (μM) SFM (Botrytis cinerea) | Gray mold symptoms, drop inoculation assay (B. cinerea; peptide at 1.5 μM) | Gray mold symptoms, drop inoculation assay (B. cinerea; peptide at 3 μM and 6 μM) | B. cinerea MIC (Botrytis cinerea) | MIC (μM) Botrytis cinerea (Botrytis cinerea) | SFM + 2 mM CaCl2 MIC (Botrytis cinerea) | SFM + 100 mM KCl MIC (Botrytis cinerea) | SFM + 100 mM NaCl MIC (Botrytis cinerea) | SFM MIC (Botrytis cinerea)
1 | C[C@@H](O)[C@H](NC(=O)[C@H](CS)NC(=O)[C@H](Cc1c[nH]c2ccccc12)NC(=O)[C@H](CS)NC(=O)[C@H](CCCNC(=N)N)NC(=O)[C@H](Cc1ccccc1)NC(=O)[C@H](CC(=O)O)NC(=O)[C@H](CC(=O)O)NC(=O)[C@H](CCCNC(=N)N)NC(=O)[C@H](CS)NC(=O)[C@H](CCCNC(=N)N)NC(=O)CN)C(=O)N[C@@H](CCCCN)C(=O)N[C@@H](CC(N)=O)C(=O)N[C@@H](CS)C(=O)O [GMA1C, reference compound] (H-GRCRDDFRCWCTKNC-OH; N-terminus assumed) | >12 µM | >12 µM | >12 µM | >12 µM | – | – | – | – | – | – | – | –
2 | CC[C@H](C)[C@H](NC(=O)[C@H](CCCNC(=N)N)NC(=O)[C@H](CS)NC(=O)[C@H](CCCNC(=N)N)NC(=O)CNC(=O)[C@@H](N)CO)C(=O)N[C@@H](CC(C)C)C(=O)N[C@@H](Cc1ccccc1)C(=O)N[C@@H](CCCNC(=N)N)C(=O)N[C@@H](CS)C(=O)N[C@@H](Cc1ccccc1)C(=O)N[C@@H](CS)C(=O)N[C@H](C(=O)N[C@@H](CCCCN)C(=O)N[C@@H](CC(N)=O)C(=O)N[C@@H](CS)C(N)=O)[C@@H](C)O [GMA1C_V1] (H-SGRCRILFRCFCTKNC-NH2; N-terminus assumed) | – | >12 µM | >6 µM | >6 µM | – | – | – | – | – | – | – | –
3 | CC[C@H](C)[C@@H]1NC(=O)[C@H](CCCNC(=N)N)NC(=O)[C@@H](NC(=O)[C@H](CCCNC(=N)N)NC(=O)CNC(=O)[C@@H](N)CO)CSSC[C@@H](C(N)=O)NC(=O)[C@H](CC(N)=O)NC(=O)[C@H](CCCCN)NC(=O)[C@H]([C@@H](C)O)NC(=O)[C@H](Cc2c[nH]c3ccccc23)NC(=O)[C@H](Cc2ccccc2)NC(=O)[C@H](Cc2c[nH]c3ccccc23)NC(=O)[C@H](CCCNC(=N)N)NC(=O)[C@H](Cc2ccccc2)NC(=O)[C@H](CC(C)C)NC1=O [GMA1C_V2] (H-SGRCRILFRWFWTKNC-NH2; disulfide 4-16; N-terminus assumed) | 3 µM | >12 µM | 3 µM | 1.5 to 3 µM | more effective than GMA1C_V1 | completely abrogated gray mold symptoms | – | – | – | – | – | –
4 | CC[C@H](C)[C@@H]1NC(=O)[C@H](CCCNC(=N)N)NC(=O)[C@@H](NC(=O)[C@H](CCCNC(=N)N)NC(=O)CNC(=O)[C@@H](N)CO)CSSC[C@@H](C(N)=O)NC(=O)[C@H](CC(N)=O)NC(=O)[C@H](CCCCN)NC(=O)[C@H]([C@@H](C)O)NC(=O)[C@H](Cc2ccccc2)NC(=O)[C@H](Cc2ccc(O)cc2)NC(=O)[C@H](Cc2c[nH]c3ccccc23)NC(=O)[C@H](CCCNC(=N)N)NC(=O)[C@H](Cc2ccccc2)NC(=O)[C@H](CC(C)C)NC1=O [GMA1C_V3] (H-SGRCRILFRWYFTKNC-NH2; disulfide 4-16; N-terminus assumed) | 6 µM | >12 µM | 3 µM | 1.5 µM (≈ 3.07 µg/mL) | – | – | – | – | – | – | – | –
5 | C[C@@H](O)[C@H](NC(=O)[C@H](CS)NC(=O)[C@H](Cc1ccccc1)NC(=O)[C@H](CS)NC(=O)[C@H](CCCNC(=N)N)NC(=O)[C@H](CCCNC(=N)N)NC(=O)[C@H](CCCNC(=N)N)NC(=O)[C@H](Cc1ccccc1)NC(=O)CNC(=O)[C@H](CCCNC(=N)N)NC(=O)[C@H](CS)NC(=O)[C@H](CCCNC(=N)N)NC(=O)CN)C(=O)N[C@H](C(=O)N[C@@H](Cc1c[nH]cn1)C(=O)N[C@@H](CS)C(N)=O)[C@@H](C)O [GMA4AC] (H-GRCRGFRRRCFCTTHC-NH2) | – | – | – | 3 µM (≈ 5.88 µg/mL) | – | – | – | – | – | – | – | –
6 | N=C(N)NCCC[C@H](NC(=O)CNC(=O)[C@@H](N)Cc1ccccc1)C(=O)N[C@@H](CS)C(=O)N[C@@H](CCCNC(=N)N)C(=O)NCC(=O)N[C@@H](Cc1ccccc1)C(=O)N[C@@H](CCCNC(=N)N)C(=O)N[C@@H](CCCNC(=N)N)C(=O)N[C@@H](CCCNC(=N)N)C(=O)N[C@@H](CS)C(=O)N[C@@H](Cc1ccccc1)C(=O)N[C@@H](CS)C(=O)N[C@@H](Cc1c[nH]c2ccccc12)C(=O)N[C@@H](CCCNC(=N)N)C(=O)N[C@@H](Cc1c[nH]c2ccccc12)C(=O)N[C@@H](CS)C(=O)O [GMA4C_V4] (H-FGRCRGFRRRCFCWRWC-OH; N-terminus assumed) | – | – | – | – | – | – | 1.5 µM | 3 µM (≈ 6.89 µg/mL) | 6 µM | 3 µM | 3 µM | 3 µM
7 | NCC[C@H](NC(=O)CNC(=O)[C@@H](N)Cc1ccccc1)C(=O)N[C@@H](CS)C(=O)N[C@@H](CCN)C(=O)NCC(=O)N[C@@H](Cc1ccccc1)C(=O)N[C@@H](CCN)C(=O)N[C@@H](CCN)C(=O)N[C@@H](CCN)C(=O)N[C@@H](CS)C(=O)N[C@@H](Cc1ccccc1)C(=O)N[C@@H](CS)C(=O)N[C@@H](Cc1c[nH]c2ccccc12)C(=O)N[C@@H](CCN)C(=O)N[C@@H](Cc1c[nH]c2ccccc12)C(=O)N[C@@H](CS)C(=O)O [GMA4C_V5, FG(Dab)C(Dab)GF(Dab)(Dab)(Dab)CFCW(Dab)WC] (H-FG[Dab]C[Dab]GF[Dab][Dab][Dab]CFCW[Dab]WC-OH; N-terminus assumed) | – | – | – | – | – | – | 1.5 µM | 6 µM (≈ 11.8 µg/mL) | >6 µM | >6 µM | 6 µM | 6 µM
8 | C[C@H](NC(=O)CN)C(=O)N[C@@H](CS)C(=O)N[C@@H](Cc1c[nH]cn1)C(=O)N[C@@H](CCCNC(=N)N)C(=O)N[C@@H](CCC(N)=O)C(=O)NCC(=O)N[C@@H](Cc1ccccc1)C(=O)NCC(=O)N[C@@H](Cc1ccccc1)C(=O)N[C@@H](C)C(=O)N[C@@H](CS)C(=O)N[C@@H](Cc1ccccc1)C(=O)N[C@@H](CS)C(=O)N[C@@H](Cc1ccc(O)cc1)C(=O)N[C@@H](CCCCN)C(=O)N[C@@H](CCCCN)C(=O)N[C@@H](CS)C(N)=O [GMA5CA_WT, reference compound] (H-GACHRQGFGFACFCYKKC-NH2; N-terminus assumed) | >12 µM | >12 µM | >12 µM | 6 µM (≈ 12.2 µg/mL) | – | – | – | – | – | – | – | –
9 | CC(C)C[C@@H]1NC(=O)[C@@H](NC(=O)[C@H](C)NC(=O)CN)CSSC[C@@H](C(=O)N[C@@H](Cc2ccc(O)cc2)C(N)=O)NC(=O)[C@H](Cc2c[nH]cn2)NC(=O)[C@H](CCCNC(=N)N)NC(=O)[C@H](Cc2ccc(O)cc2)NC(=O)[C@H](Cc2ccc(O)cc2)NC(=O)[C@H](Cc2c[nH]c3ccccc23)NC(=O)[C@H](Cc2ccccc2)NC(=O)[C@H](Cc2c[nH]c3ccccc23)NC(=O)CNC(=O)[C@H](Cc2ccc(O)cc2)NC(=O)[C@H](Cc2c[nH]cn2)NC(=O)[C@H](CCCCN)NC(=O)[C@H](CO)NC(=O)[C@H](Cc2c[nH]cn2)NC(=O)[C@H](CCCNC(=N)N)NC(=O)[C@H](CC(N)=O)NC(=O)[C@H](CCCCN)NC1=O [GMAOe1C_V3] (H-GACLKNRHSKHYGWFWYYRHCY-NH2; disulfide 3-21; N-terminus assumed) | 3 to 6 µM | 6 to 12 µM | 2 to 3 µM | 1.5 µM (≈ 4.31 µg/mL) | more effective than GMAOe1C_V4 or GMAOe1C_WT | completely abrogated gray mold symptoms | – | – | – | – | – | –
10 | CC(C)C[C@@H]1NC(=O)[C@@H](NC(=O)[C@H](C)NC(=O)CN)CSSC[C@@H](C(=O)N[C@@H](Cc2ccc(O)cc2)C(N)=O)NC(=O)[C@H](Cc2c[nH]cn2)NC(=O)[C@H](CCCNC(=N)N)NC(=O)[C@H](Cc2ccc(O)cc2)NC(=O)[C@H](Cc2ccc(O)cc2)NC(=O)[C@H](Cc2c[nH]c3ccccc23)NC(=O)[C@H](Cc2ccccc2)NC(=O)[C@H](Cc2ccccc2)NC(=O)CNC(=O)[C@H](Cc2ccc(O)cc2)NC(=O)[C@H](Cc2c[nH]cn2)NC(=O)[C@H](CCCCN)NC(=O)[C@H](CO)NC(=O)[C@H](Cc2c[nH]cn2)NC(=O)[C@H](CCCNC(=N)N)NC(=O)[C@H](CC(N)=O)NC(=O)[C@H](CCCCN)NC1=O [GMAOe1C_V4] (H-GACLKNRHSKHYGFFWYYRHCY-NH2; disulfide 3-21; N-terminus assumed) | 6 to 12 µM | 6 to 12 µM | 6 µM | 1.5 µM (≈ 4.25 µg/mL) | – | completely abrogated gray mold symptoms | – | – | – | – | – | –
11 | CC(C)C[C@H](NC(=O)[C@H](CS)NC(=O)[C@H](C)NC(=O)CN)C(=O)N[C@@H](CCCCN)C(=O)N[C@@H](CC(N)=O)C(=O)N[C@@H](CCCNC(=N)N)C(=O)N[C@@H](Cc1c[nH]cn1)C(=O)N[C@@H](CO)C(=O)N[C@@H](CCCCN)C(=O)N[C@@H](Cc1c[nH]cn1)C(=O)N[C@@H](Cc1ccc(O)cc1)C(=O)NCC(=O)N[C@@H](CS)C(=O)N[C@@H](Cc1ccc(O)cc1)C(=O)N[C@@H](CS)C(=O)N[C@@H](Cc1ccc(O)cc1)C(=O)N[C@@H](Cc1ccc(O)cc1)C(=O)N[C@@H](CCCNC(=N)N)C(=O)N[C@@H](Cc1c[nH]cn1)C(=O)N[C@@H](CS)C(=O)N[C@@H](Cc1ccc(O)cc1)C(N)=O [GMAOe1C_WT, reference compound] (H-GACLKNRHSKHYGCYCYYRHCY-NH2; N-terminus assumed) | >12 µM | 6 to 12 µM | 3 to 6 µM | 3 µM (≈ 8.18 µg/mL) | – | only effective at 6 μM | – | – | – | – | – | –
12 | GACLKNRHSKHYGWFWYYRHCY-NH2 (cysteine pairing not given here) [GMAOe1C_V2] | – | – | – | – | – | completely abrogated gray mold symptoms | – | – | – | – | – | –
